pIC50: −log10 of the molar value. “Also recorded” adds a separate entry of the source.
Assays:
[1] = tested on: 3D organotypic corneal barrier; test: 3D organotypic corneal barrier passage (LC-MS/MS); type: in vitro ADME; conditions: repeated drug administration
cornea endothelial cells = test: Specular microscopy cornea endothelial cell count, TAED017 eye drops 6 months; type: in vivo, rabbit; conditions: for cell count, treatment vs control: 2nd and 5th months
Description: 16-month-old male New Zealand rabbits were used in the study. […] When determining the starting age of rabbits and the duration of eye drop application (6 months), 16 months was chosen to correspond to adult human age, and the study period of 6 months was modeled as the period in which New Zealand rabbits aged 7.91 years (22.75 days for adult New Zealand rabbits, corresponding to 1 year for human age).
In FIGS. 12-15, data are shown as mean±standard error. The statistical evaluations are based on CD (cornea endothelia cell density) values. All CD values were corrected to the baseline measurement (month 0) of the respective rabbit and this correction was made as a percentage [(CD value/CD baseline value)*100]. GraphPad Prism 8.0.2 software was used for all statistical analyses and visualizations. The treatment of the rabbits at the respective dose was compared between the left (TAED017 treatment) and right (non-treated control) eye, both temporally and time and side dependent. For all analyses, “2-way ANOVA test for repeated measures” was used. For data sets with missing data, this analysis was set as “mixed-effect analysis” by the program. “Tukey” and “sidak” tests were used for posthoc analyses. The p values for these tests are adjusted p values.

[2] = tested on: human corneal endothelial cells; test: Morphologic evaluation and cell viability, cornea endothelial cells; type: cell-based
Protocol: In the morphologic evaluation, the cells at different time periods (1 h, 4 h, 24 h) were observed following different concentrations of drug administration.

[3] = tested on: human corneal epithelial cells; test: Morphologic evaluation and cell viability, cornea epithelial cells; type: cell-based
telomerase [4] = molecular target: T1, telomerase (Homo sapiens, UniProt O14746); test: Telomerase activity of cornea endothelial and epithelial cells; type: cell-based
T1 construct: telomerase activity was evaluated in cornea endothelial cell HCEC-B4G12; endogenous in cells; host or cells: HCEC-B4G12 (DSMZ ACC 647)

[5] = Rabbit ocular pharmacokinetic model; type: in vivo
Protocol: At the end of the fifth day, blood, tear, cornea, anterior chamber fluid, iris and lens tissues were collected at 30, 60, 120, 240 and 480 minutes following the last administration of 4 μg/50 μl. […] According to the results of the drug analysis at the 30th minute, the highest drug concentrations of 215.56 ng in the corneal tissue, 4 ng in the anterior chamber and 14.12 ng in the iris were detected individually, proving that the drug passes into the corneal tissue after application to the corneal surface and reaches the intraocular tissues.

[6] = tested on: telomerase reverse transcriptase (TERT); test: TERT immunohistochemistry of eye tissues; type: in vivo, rabbit
Description: This was characterized by weak telomerase activity in the endothelial layer with an expression of limited number of endothelial cells.

[7] = tested on: telomere length in Corneal Endothelial Cells (CEC); test: Telomere length of corneal endothelial cells, treated versus untreated eyes; type: in vivo, rabbit; conditions: six months treatment
Protocol: IG. 18 illustrates a graph showing percentage of telomere length increases in treated eyes (L) versus control (untreated eyes, R), with increasing dosages of telomerase activator. […] (Cy3=Fluorescence signal of telomere probe, Hoescht=fluorescence of the nuclei, Average R=Average of the control eye).
To determine the mechanism by which treatment with TAED017 prevents Corneal Endothelial Cell (CEC) attrition, telomere lengths from CECs of both treated and untreated eyes were measured and compared.
We then evaluated whether the observed effect of telomere lengthening in CECs also occurred in other ocular tissues. Rabbit eyes were treated for six months with TAED017, (one eye of each rabbit was treated while the other eye remained untreated, as a control group).

corneal endothelium = test: Histopathology of corneal layer, treated rabbits; type: in vivo, rabbit
Protocol: Eye tissue was fixed with 4% formaldehyde and embedded in paraffin for the histopathological assessment and processed according to routine light microscope tissue processing methods. 5 μm tissue sections stained with Hematoxylin-Eosin (H&E) were examined and photographed by Leica image analyzing system (Leica, Germany). All specimens were evaluated individually by three histologists who were blinded to the drug type and the treatment times. Histopathology was also performed to evaluate the corneal opacity, neovascularization, inflammatory cell density, vessel size and edema. Moreover, lens structure, scleral, choroidal and macular changes were analyzed by histopathology.

telomerase [8] = molecular target: T1, telomerase; test: TeloTAGGG Telomerase PCR ELISA assay in HCEC-B4G12; type: cell-based; conditions: for % Telomerase Activity ± SD: 30 hours
Protocol: TeloTAGGG™ Telomerase PCR ELISA assay was performed as described by manufacturer (Sigma-Aldrich).

[9] = tested on: corneal endothelial cells; test: Corneal endothelial cell density (CD) by specular microscopy, rabbits treated 6 months; type: in vivo, rabbit
Protocol: All experiments were designed and carried out in a randomized, double blind manner using placebos. Rabbits were housed for one week prior to the study, fed on standard laboratory food and allowed free access to water in a room at standard temperature and humidity conditions in a 12-h light/12-h dark cycle.
All analyses were carried out using GraphPad Prism 5.0 (GraphPad Software, San Diego, CA, USA). Differences were considered to be significant at a level of P: : : : 0.001.

[10] = tested on: telomere length in corneal endothelial cells; test: Telomere length (TAT analysis) in corneal endothelial cells from treated rabbits; type: in vivo, rabbit; conditions: 6 months
Protocol: Samples were received in paraffin.
The sample is filtered to remove collagen residues. Telomere lengths were assessed using Life Length's.
All measurements were performed in quintuplicate.

[11] = cornea endothelial and epithelial cells, 48 hours

T1 sequence (O14746 whole entry): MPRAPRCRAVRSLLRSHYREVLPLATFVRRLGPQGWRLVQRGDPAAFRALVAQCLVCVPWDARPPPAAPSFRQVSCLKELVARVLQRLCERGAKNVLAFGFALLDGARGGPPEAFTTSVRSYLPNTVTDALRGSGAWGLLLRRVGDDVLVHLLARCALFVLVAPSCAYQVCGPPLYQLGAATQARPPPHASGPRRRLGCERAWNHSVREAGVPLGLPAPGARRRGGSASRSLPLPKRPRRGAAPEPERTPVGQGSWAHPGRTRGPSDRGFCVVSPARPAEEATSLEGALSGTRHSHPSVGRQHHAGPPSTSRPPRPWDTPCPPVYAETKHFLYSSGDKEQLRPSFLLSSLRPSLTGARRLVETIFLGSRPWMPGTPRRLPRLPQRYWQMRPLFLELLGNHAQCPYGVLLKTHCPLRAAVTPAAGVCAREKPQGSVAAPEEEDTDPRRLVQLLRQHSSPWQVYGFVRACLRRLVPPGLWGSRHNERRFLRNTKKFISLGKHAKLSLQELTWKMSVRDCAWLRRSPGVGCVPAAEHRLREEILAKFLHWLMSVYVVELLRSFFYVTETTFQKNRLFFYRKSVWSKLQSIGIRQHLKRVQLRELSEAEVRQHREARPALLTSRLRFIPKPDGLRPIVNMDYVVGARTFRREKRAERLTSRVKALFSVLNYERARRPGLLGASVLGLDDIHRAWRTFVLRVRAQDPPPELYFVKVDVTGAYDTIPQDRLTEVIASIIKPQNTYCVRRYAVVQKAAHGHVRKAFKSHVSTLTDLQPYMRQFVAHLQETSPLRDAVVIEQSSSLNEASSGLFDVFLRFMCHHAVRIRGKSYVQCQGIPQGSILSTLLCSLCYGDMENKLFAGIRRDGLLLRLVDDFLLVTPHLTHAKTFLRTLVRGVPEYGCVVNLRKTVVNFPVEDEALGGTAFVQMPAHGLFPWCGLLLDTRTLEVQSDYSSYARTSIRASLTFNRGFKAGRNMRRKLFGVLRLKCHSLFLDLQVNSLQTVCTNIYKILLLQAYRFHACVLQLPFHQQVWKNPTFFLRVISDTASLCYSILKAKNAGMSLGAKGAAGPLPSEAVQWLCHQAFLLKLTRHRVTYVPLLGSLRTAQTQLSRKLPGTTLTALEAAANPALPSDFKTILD

CC(C)(O)[C@@H]1CC[C@](C)([C@H]2[C@@H](O)C[C@@]3(C)[C@@H]4C[C@H](O)[C@H]5C(C)(C)[C@@H](O)CC[C@@]56C[C@@]46CC[C@]23C)O1 [TAED017, Cycloastragenol]
amount crossing the corneal barrier, highest ([1]; 48th hour): 1.35% | amount crossing the corneal barrier, highest ([1]; 72nd hour): 1.89% | cell count, difference between months in the treated eye (cornea endothelial cells; 4 μg/50 μl): no significant difference between the times | cell count, overall comparison treated left vs untreated right eye (cornea endothelial cells; 4 μg/50 μl twice a day, two way ANOVA): no statistically significant difference | cell count, treatment vs control (cornea endothelial cells; 4 μg/50 μl): no statistically significant difference | cell count, treatment vs control (cornea endothelial cells; 8 μg/50 μl): no difference | cell count, overall comparison treated left vs untreated right eye (cornea endothelial cells; 8 μg/50 μl, mixed-effects analysis): statistically significant difference | cell count, difference between months in the treated eye (cornea endothelial cells; 12 μg/50 μl): statistically significant difference between the 2nd and 6th month | cell count, treatment vs control (cornea endothelial cells; 12 μg/50 μl): no difference | cell count, overall comparison treated left vs untreated right eye (cornea endothelial cells; 12 μg/50 μl, mixed-effects analysis): statistically significant difference | morphologic change ([2]; 40 μM and 80 μM, up to 24 hours): no significant changes | apoptotic cells in 20× microscope field ([2]; 320 μM, 640 μM and 960 μM, after 1 h and 4 h): 1-5 | morphologic change ([2]; 320 μM, 640 μM and 960 μM, as early as 5 minutes): cell-cell connections were disrupted and the cells became round | pIC50 ([2]; cornea endothelial cells, read-out: IC50 dose (cell viability assays)): 3.66 | doses that appear safe ([2]; corneal endothelial cells, in vitro): ≤ 80 µM | cell damage ([2]; doses above 80 μM, prolonged drug exposure): significant apoptosis and lysis | apoptosis in HCECs ([2]; high concentrations (e.g. 160 μM and 320 μM)): significantly induces apoptosis | concentration of first degenerative changes ([3]; after 24 hours): 320 µM | pIC50 ([3]; cornea epithelial cells, read-out: IC50 dose (cell viability assays)): 3.13 | concentrations without morphological degenerative changes (safe) ([3]; epithelial cells): ≤ 160 μM | concentrations at which telomerase activity reached its highest level (telomerase [4]; [11]): 20 μM, 40 μM and 100 μM | starting concentration of telomerase activity increase (telomerase [4]; [11]): 2 µM | telomerase activity after 100 μM concentration (telomerase [4]; [11]): no higher telomerase activity | TAED017 activity, epithelial versus endothelial cells (telomerase [4]; human corneal epithelial cells vs HCEC B4-G12): higher in corneal epithelial cells | starting concentration of telomerase activity increase (telomerase [4]; printed in brackets after 2 μM): 100 ng/mL | Tmax, all eye tissues ([5]; 4 μg/50 μl twice a day 5 days, after last administration): 30 min | drug concentration in tears ([5]; 30 and 60 minutes): ≤ 3 ng | highest drug concentration, anterior chamber ([5]; 30th minute, 4 μg/50 μl): 4 ng | highest drug concentration, corneal tissue ([5]; 30th minute, 4 μg/50 μl): 215.56 ng | highest drug concentration, iris ([5]; 30th minute, 4 μg/50 μl): 14.12 ng | highest level of drug absorbed to the corneal surface ([5]; proportion of applied drug): 5.39% | proportion of the drug that passed into the eye, iris tissue ([5]; proportion of applied drug): 0.35% | TERT immunoreactivity in cornea and iris, rank among dose groups ([6]; 80 μg/ml): lowest Tert immunoreactivity; also recorded: lowest levels | TERT immunostaining in the ciliary processes of iris tissue ([6]; 80 μg/ml): Prominent and dense tert antigen immunostaining | TERT staining in corneal endothelial cells ([6]; 160 μg and 240 μg/ml): continuous layer staining | TERT immunostaining in the ciliar processes ([6]; 160 μg/ml and 240 μg/ml): diffuse and very intense immunopositivity | TERT immunoreactivity in cornea and iris, rank among dose groups ([6]; 240 μg/ml): highest reactivity; also recorded: highest levels | TERT expression in cornea and iris, treated left eyes vs untreated ([6]; 80-240 μg/ml eye drops): significantly higher expression; also recorded: significantly elevated | TERT activity in the iris and choroidea vs untreated ([6]; treatment groups): significantly higher | CEC telomere length, treated vs untreated eyes [7]: significant increase; also recorded: longer than those from untreated eyes

CC(C)(O)[C@@H]1CC[C@](C)([C@H]2[C@@H](O)C[C@@]3(C)[C@@H]4C[C@H](O)[C@H]5C(C)(C)[C@@H](O)CC[C@@]56C[C@@]46CC[C@]23C)O1 [cycloastragenol, Cycloastragenol]
histopathological finding, corneal endothelium (corneal endothelium; Group B, 25 ng/ml, compared to group A): cell losses were observed in very few areas | histopathological finding, corneal endothelium (corneal endothelium; Group C, 100 ng/ml): configuration and number of cells were found to be close to Group NC | histopathological finding, corneal endothelium (corneal endothelium; Group D, 500 ng/ml, compared to Group B and Group C): more hypertrophic and place cell losses | % Telomerase Activity ± SD (telomerase [8]; 3.8 ng/ML): 108 ± 5.27% | % Telomerase Activity ± SD (telomerase [8]; 7.8 ng/ML): 114.42 ± 2.79% | % Telomerase Activity ± SD (telomerase [8]; 15.6 ng/ML): 148.94 ± 49.54% | % Telomerase Activity ± SD (telomerase [8]; 125 ng/ML): 43.14 ± 0.24% | % Telomerase Activity ± SD (telomerase [8]; 250 ng/ML): 46.28 ± 2.02% | % Telomerase Activity ± SD (telomerase [8]; 500 ng/ML): 54.38 ± 2.78% | % Telomerase Activity ± SD (telomerase [8]; 10000 ng/ML, placebo (1% DMSO) = 100%): 74.0 ± 10.45% | telomerase activity compared with negative control (telomerase [8]; 3.8-62.5 ng/ml): higher telomerase activity than negative control | telomerase activity, times higher than the negative control (telomerase [8]; 62.5-31.25 ng/ml): 7-10 times | telomerase activity compared with negative control (telomerase [8]; 125-1000 ng/ml): lower than negative control | concentration giving the highest activity of telomerase (telomerase [8]; HCEC-B4G12): 62.5 ng/mL | Cell Density (CD) of cornea layer endothelial cells ([9]; Group B, 25 ng/ml, month 0): 2531.00 | Cell Density (CD) of cornea layer endothelial cells ([9]; Group B, 25 ng/ml, month 1): 2612.38 | change in cell density versus month 0 ([9]; Group B, 25 ng/ml, month 1): 3% | higher cell density than negative control group ([9]; Group B, 25 ng/ml, month 1): about 4% | higher cell density than placebo group ([9]; Group B, 25 ng/ml, month 1): about 4% | Cell Density (CD) of cornea layer endothelial cells ([9]; Group B, 25 ng/ml, month 3): 2604.50 | change in cell density versus month 0 ([9]; Group B, 25 ng/ml, month 3): 3% | higher cell density than negative control group ([9]; Group B, 25 ng/ml, month 3): ~18% | higher cell density than placebo group ([9]; Group B, 25 ng/ml, month 3): ~18% | Cell Density (CD) of cornea layer endothelial cells ([9]; Group B, 25 ng/ml, month 6): 2545.88 | change in cell density versus month 0 ([9]; Group B, 25 ng/ml, month 6): 4% | higher cell density than negative control group ([9]; Group B, 25 ng/ml, month 6): ~19% | higher cell density than placebo group ([9]; Group B, 25 ng/ml, month 6): ~20% | Cell Density (CD) of cornea layer endothelial cells ([9]; Group C, 100 ng/ml, month 0): 2689.88 | Cell Density (CD) of cornea layer endothelial cells ([9]; Group C, 100 ng/ml, month 1): 2741.13 | Cell Density (CD) of cornea layer endothelial cells ([9]; Group C, 100 ng/ml, month 3): 2453.88 | Cell Density (CD) of cornea layer endothelial cells ([9]; Group C, 100 ng/ml, month 6): 2472.38 | Cell Density (CD) of cornea layer endothelial cells ([9]; Group D, 500 ng/ml, month 0): 2875.13 | Cell Density (CD) of cornea layer endothelial cells ([9]; Group D, 500 ng/ml, month 1): 2835.38 | Cell Density (CD) of cornea layer endothelial cells ([9]; Group D, 500 ng/ml, month 3): 2498.50 | Cell Density (CD) of cornea layer endothelial cells ([9]; Group D, 500 ng/ml, month 6): 2488.88 | 2am Percentile Length ([10]; GROUP B, 25 ng/ml): 6,968 Base Pairs | Median Length ([10]; GROUP B, 25 ng/ml): 11,431 Base Pairs | Telomeres <3 Kbp ([10]; GROUP B, 25 ng/ml): 3.7% | 2am Percentile Length ([10]; GROUP C, 100 ng/ml): 7,374 Base Pairs | Median Length ([10]; GROUP C, 100 ng/ml): 11,543 Base Pairs | Telomeres <3 Kbp ([10]; GROUP C, 100 ng/ml): 3.1% | 2am Percentile Length ([10]; GROUP D, 500 ng/ml): 7,113 Base Pairs | Median Length ([10]; GROUP D, 500 ng/ml): 11,552 Base Pairs | Telomeres <3 Kbp ([10]; GROUP D, 500 ng/ml): 3.6% | concentration in eye tissues ([5]; zero hour, after 5 days of eye drops, without last administration): below 1 ng
